# From patent US9096565B2, “Inhibitors of histone deacetylase” (MethylGene Inc., priority 2007, dated 2015)
# Target: one or more of HDAC-4, HDAC-5, HDAC-6, HDAC-7, HDAC-8, HDAC-9, HDAC-10 and HDAC-11
# Assay: Inhibition of histone deacetylase enzymatic activity (summary statement over isoforms)
# Type: biochemical
# Settings: Table 3, selected examples; HDAC isoform not given
# In short: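 HDAC enzyme mix with compound was preincubated 5 min at room temperature. Reaction was started at 37 °C with Boc-Lys(trifluoroacetyl)-AMC substrate and run 20-30 min. It was stopped with trypsin (1 mg/mL) plus a known HDAC inhibitor to release the fluorogenic AMC.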
row,SMILES,IC50 [nM]
1,"O=C(NO)C(c1ccccc1)c1ccc(-c2ccc(F)c(F)c2)cc1 (stereo not shown) [Compound 5-49, 2-(3′,4′-difluorobiphenyl-4-yl)-N-hydroxy-2-phenylacetamide]",< 1000
2,"COc1ccc2sc(SC(C(=O)NO)c3ccccc3)nc2c1 (stereo not shown) [Compound 5-50, N-hydroxy-2-(5-methoxybenzo[d]thiazol-2-ylthio)-2-phenylacetamide]",< 1000
3,"O=C(NO)C(c1ccccc1)c1nnc(-c2ccccc2Oc2ccccc2)s1 (stereo not shown) [Compound 5-52, N-hydroxy-2-(5-(2-phenoxyphenyl)-1,3,4-thiadiazol-2-yl)-2-phenylacetamide]",< 1000
4,"O=C(NO)C(c1ccccc1)c1nnc(COc2ccccc2)s1 (stereo not shown) [Compound 5-53, N-hydroxy-2-(5-(phenoxymethyl)-1,3,4-thiadiazol-2-yl)-2-phenylacetamide]",< 1000
5,"O=C(NO)C(c1ccccc1)c1nnc(-c2ccc3ccccc3c2)s1 (stereo not shown) [Compound 5-54, N-hydroxy-2-(5-(naphthalen-2-yl)-1,3,4-thiadiazol-2-yl)-2-phenylacetamide]",1000 to 15000
6,"O=C(NO)C(c1ccccc1)c1nnc(-c2ccc3[nH]ccc3c2)s1 (stereo not shown) [Compound 5-55, 2-(5-(1H-indol-5-yl)-1,3,4-thiadiazol-2-yl)-N-hydroxy-2-phenylacetamide]",< 1000
7,"O=C(NO)C1c2ccccc2N(Cc2ccccc2)c2ccccc21 [Compound 5-56, 10-benzyl-N-hydroxy-9,10-dihydroacridine-9-carboxamide]",< 1000
8,"CN(C)c1ccc(-c2ccc(C(C(=O)NO)c3ccccc3)cc2)cn1 (stereo not shown) [Compound 5-58, 2-(4-(6-(dimethylamino)pyridin-3-yl)phenyl)-N-hydroxy-2-phenylacetamide]",< 1000
9,"O=C(NO)C(Sc1nc2cc(Cl)ccc2s1)c1ccccc1 (stereo not shown) [Compound 5-59, 2-(5-chlorobenzo[d]thiazol-2-ylthio)-N-hydroxy-2-phenylacetamide]",< 1000
10,"O=C(NO)C(c1ccccc1)c1ccc(C#Cc2cccnc2)cc1 (stereo not shown) [Compound 5-63, N-hydroxy-2-phenyl-2-(4-(pyridin-3-ylethynyl)phenyl)acetamide]",< 1000
11,"O=C(NO)C(c1ccccc1)c1nnc(C2c3ccccc3Oc3ccccc32)s1 (stereo not shown) [Compound 5-64, 2-(5-(9H-xanthen-9-yl)-1,3,4-thiadiazol-2-yl)-N-hydroxy-2-phenylacetamide]",< 1000
12,"O=C(NO)C(c1ccccc1)c1ccc(N2CCN(Cc3ccccc3)CC2)cc1 (stereo not shown) [Compound 5-65, 2-(4-(4-benzylpiperazin-1-yl)phenyl)-N-hydroxy-2-phenylacetamide]",< 1000
13,"O=C(NO)C(c1ccccc1)c1ccc(N2CCN(c3cccc(C(F)(F)F)c3)CC2)cc1 (stereo not shown) [Compound 5-67, N-hydroxy-2-phenyl-2-(4-(4-(3-(trifluoromethyl)phenyl)piperazin-1-yl)phenyl)acetamide]",< 1000
14,"O=C(NO)C(c1ccccc1)c1ccc(CCCCc2ccccc2)cc1 (stereo not shown) [Compound 5-68, N-hydroxy-2-phenyl-2-(4-(4-phenylbutyl)phenyl)acetamide]",< 1000
15,"O=C(NO)C(c1ccc(N2CCCC2)cc1)c1ccc2c(c1)CCO2 (stereo not shown) [Compound 5-69, 2-(2,3-dihydrobenzofuran-5-yl)-N-hydroxy-2-(4-(pyrrolidin-1-yl)phenyl)acetamide]",< 1000
16,"O=C(NO)C(c1ccccc1)N1C[C@@H]2C[C@H]1CO2 (stereo partly drawn) [Compound 5-71, 2-((1S,4S)-2-oxa-5-azabicyclo[2.2.1]heptan-5-yl)-N-hydroxy-2-phenylacetamide]",1000 to 15000
17,"O=C(NO)C(c1ccccc1)c1ccc(-c2ncccc2F)cc1 (stereo not shown) [Compound 5-74, 2-(4-(3-fluoropyridin-2-yl)phenyl)-N-hydroxy-2-phenylacetamide]",< 1000
18,"O=C(NO)C(c1ccccc1)c1ccc(N2CCN(C(=O)OCc3ccccc3)CC2)cc1 (stereo not shown) [Compound 5-75, benzyl 4-(4-(2-(hydroxyamino)-2-oxo-1-phenylethyl)phenyl)piperazine-1-carboxylate]",< 1000
19,"O=C(NO)C(c1ccccc1)c1ccc(N2CCN(Cc3ccc4c(c3)OCO4)CC2)cc1 (stereo not shown) [Compound 5-76, 2-(4-(4-(benzo[d][1,3]dioxol-5-ylmethyl)piperazin-1-yl)phenyl)-N-hydroxy-2-phenylacetamide]",< 1000
20,"Cn1cncc1C#Cc1ccc(C(C(=O)NO)c2ccccc2)cc1 (stereo not shown) [Compound 5-79, N-hydroxy-2-(4-((1-methyl-1H-imidazol-5-yl)ethynyl)phenyl)-2-phenylacetamide]",< 1000
21,"O=C(NO)C(c1ccccc1)c1ccc(-n2ccc3ccccc32)cc1 (stereo not shown) [Compound 5-81, 2-(4-(1H-indol-1-yl)phenyl)-N-hydroxy-2-phenylacetamide]",< 1000
22,"CCN(CC)c1ccc(C(C(=O)NO)c2ccc3c(c2)CCO3)cc1 (stereo not shown) [Compound 5-82, 2-(4-(diethylamino)phenyl)-2-(2,3-dihydrobenzofuran-5-yl)-N-hydroxyacetamide]",< 1000
23,"COc1ccc(N2CCN(c3ccc(C(C(=O)NO)c4ccccc4)cc3)CC2)cc1 (stereo not shown) [Compound 5-84, N-hydroxy-2-(4-(4-(4-methoxyphenyl)piperazin-1-yl)phenyl)-2-phenylacetamide]",< 1000
24,"O=C(NO)C(c1ccccc1)c1ccc(N2CCN(C/C=C/c3ccccc3)CC2)cc1 (stereo not shown) [Compound 5-85, (E)-2-(4-(4-cinnamylpiperazin-1-yl)phenyl)-N-hydroxy-2-phenylacetamide]",< 1000
25,"O=C(NO)C(c1ccccc1)c1ccc(N2CCNCC2)cc1 (stereo not shown) [Compound 5-86, N-hydroxy-2-phenyl-2-(4-(piperazin-1-yl)phenyl)acetamide]",< 1000
26,"COc1ncc(-c2ccc(C(C(=O)NO)c3ccccc3)cc2)cn1 (stereo not shown) [Compound 5-92, N-hydroxy-2-(4-(2-methoxypyrimidin-5-yl)phenyl)-2-phenylacetamide]",< 1000

# Second part, the compound after the results:
row,IC50 [nM],SMILES
1,< 1000,"O=C(NO)C(c1ccccc1)N1CCN(c2ccc(C(F)(F)F)cn2)CC1 (stereo not shown) [Compound 5-48, N-hydroxy-2-phenyl-2-(4-(5-(trifluoromethyl)pyridin-2-yl)piperazin-1-yl)acetamide]"
2,< 1000,"O=C(NO)C(c1ccccc1)c1ccc(N2CCC(Cc3ccccc3)CC2)cc1 (stereo not shown) [Compound 5-51, 2-(4-(4-benzylpiperidin-1-yl)phenyl)-N-hydroxy-2-phenylacetamide]"
3,1000 to 15000,"O=C(NO)C(c1ccccc1)N1CCN(c2ccc(F)cc2)CC1 (stereo not shown) [Compound 5-57, 2-(4-(4-fluorophenyl)piperazin-1-yl)-N-hydroxy-2-phenylacetamide]"
4,1000 to 15000,"O=C(NO)C(c1ccccc1)N1CCN(C(=O)OCc2ccccc2)CC1 (stereo not shown) [Compound 5-61, benzyl 4-(2-(hydroxyamino)-2-oxo-1-phenylethyl)piperazine-1-carboxylate]"
5,< 1000,"O=C(NO)C(c1ccccc1)N1CCC(c2ccc(F)cc2)CC1 (stereo not shown) [Compound 5-62, 2-(4-(4-fluorophenyl)piperidin-1-yl)-N-hydroxy-2-phenylacetamide]"
6,< 1000,"O=C(NO)C(c1ccccc1)c1ccc(N2CCN(c3ccccn3)CC2)cc1 (stereo not shown) [Compound 5-66, N-hydroxy-2-phenyl-2-(4-(4-(pyridin-2-yl)piperazin-1-yl)phenyl)acetamide]"
7,< 1000,"O=C(NO)C(c1ccccc1)c1ccc(N2CCCCC2)cc1 (stereo not shown) [Compound 5-70, N-hydroxy-2-phenyl-2-(4-(piperidin-1-yl)phenyl)acetamide]"
8,< 1000,"O=C(NO)C(c1ccccc1)c1ccc(-n2cccn2)cc1 (stereo not shown) [Compound 5-72, 2-(4-(1H-pyrazol-1-yl)phenyl)-N-hydroxy-2-phenylacetamide]"
9,< 1000,"O=C(NO)C(c1ccccc1)N1CCN(c2ccccn2)CC1 (stereo not shown) [Compound 5-73, N-hydroxy-2-phenyl-2-(4-(pyridin-2-yl)piperazin-1-yl)acetamide]"
10,< 1000,"O=C(NO)C(c1ccccc1)c1ccc(N2CCN(C3CCCC3)CC2)cc1 (stereo not shown) [Compound 5-77, 2-(4-(4-cyclopentylpiperazin-1-yl)phenyl)-N-hydroxy-2-phenylacetamide]"
11,< 1000,"O=C(NO)C(c1ccccc1)c1ccc(N2C[C@@H]3C[C@H]2CO3)cc1 (stereo partly drawn) [Compound 5-78, 2-(4-((1S,4S)-2-oxa-5-azabicyclo[2.2.1]heptan-5-yl)phenyl)-N-hydroxy-2-phenylacetamide]"
12,< 1000,"Cc1cc(C)nc(N2CCN(C(C(=O)NO)c3ccccc3)CC2)n1 (stereo not shown) [Compound 5-80, 2-(4-(4,6-dimethylpyrimidin-2-yl)piperazin-1-yl)-N-hydroxy-2-phenylacetamide]"
13,< 1000,"CN1CCN(c2ccc(C(C(=O)NO)c3ccccc3)cc2)CC1 (stereo not shown) [Compound 5-83, N-hydroxy-2-(4-(4-methylpiperazin-1-yl)phenyl)-2-phenylacetamide]"
14,1000 to 15000,"O=C(NO)C(c1ccccc1)N1CCN(S(=O)(=O)Cc2ccccc2)CC1 (stereo not shown) [Compound 5-87, 2-(4-(benzylsulfonyl)piperazin-1-yl)-N-hydroxy-2-phenylacetamide]"
15,< 1000,"O=C(NO)C(c1ccccc1)c1ccc(-n2ccnc2)cc1 (stereo not shown) [Compound 5-88, 2-(4-(1H-imidazol-1-yl)phenyl)-N-hydroxy-2-phenylacetamide]"
16,< 1000,"O=C(NO)C(c1ccc(F)cc1)c1cccc(-c2ccccc2)c1 (stereo not shown) [Compound 5-89, 2-(biphenyl-3-yl)-2-(4-fluorophenyl)-N-hydroxyacetamide]"
17,< 1000,"O=C(NO)C(c1ccc(F)cc1)c1ccc(N2CCOCC2)cc1 (stereo not shown) [Compound 5-90, 2-(4-fluorophenyl)-N-hydroxy-2-(4-morpholinophenyl)acetamide]"
18,< 1000,O=C(NO)C(c1ccccc1)c1ccc(C#CCN2CCS(=O)(=O)CC2)cc1 (stereo not shown) [Compound 5-91]
19,< 1000,"CC(C)N1CCN(c2ccc(C(C(=O)NO)c3ccccc3)cc2)CC1 (stereo not shown) [Compound 5-93, N-hydroxy-2-(4-(4-isopropylpiperazin-1-yl)phenyl)-2-phenylacetamide]"
20,< 1000,"CN(C)CCN1CCN(c2ccc(C(C(=O)NO)c3ccccc3)cc2)CC1 (stereo not shown) [Compound 5-94, 2-(4-(4-(2-(dimethylamino)ethyl)piperazin-1-yl)phenyl)-N-hydroxy-2-phenylacetamide]"
